According to the supplement of paper PMC7017272:
± gives the standard deviation of the averaged measurements.

Tests used:
Conditions in all cases: treatment time: 3 days
[1] = tested on: UT-SCC-24A; experiment: drug sensitivity score (DSS); higher = more sensitive
Procedure: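 HNSCC cell lines (500 cells/well, 384-well) were cultured on plastic, on top of (2D) or embedded (3D) in Matrigel or human leiomyoma matrix Myogel (500 ug/mL; Myogel 3D mixed with rat collagen I). Cells were treated for 3 days with 5 ten-fold concentrations of each drug, and viability was read by CellTiter-Glo. Suffixes _1/_2/_3 on drug names are replicates.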

[2] = tested on: UT-SCC-106A; experiment: maximal % inhibition of viability relative to DMSO; higher = stronger effect
Outline: (§1)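 Using 384-well plates, 500 cells/well of HPV-negative HNSCC cell lines were grown on plastic, on 500 µg/mL Matrigel or Myogel coatings, or embedded in Matrigel or Myogel with rat collagen I. They were treated with compounds at five 10-fold concentrations for 3 days, and luminescence from CellTiter-Glo 2.0 was normalised to vehicle (0.1% DMSO) and cell-killing control wells. IC50, maximal inhibition and drug sensitivity score were derived from percent-inhibition dose–response curves in the FIMM pipeline.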

[3] = tested on: UT-SCC-14; experiment: as above
Outline: as §1

[4] = tested on: UT-SCC-28; experiment: as above
Outline: as §1

[5] = tested on: UT-SCC-24A; experiment: maximal % inhibition of viability relative to DMSO; higher = stronger effect
Procedure: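 HNSCC cell lines (500 cells/well, 384-well) were cultured on plastic, on top of (2D) or embedded (3D) in Matrigel or human leiomyoma matrix Myogel (500 ug/mL; Myogel 3D mixed with rat collagen I). Cells were treated for 3 days with 5 ten-fold concentrations of each drug, and viability was read by CellTiter-Glo. Viability was normalised to DMSO (0% inhibition) and 100 uM benzethonium chloride (100% inhibition) controls and fitted with the FIMM DSRT pipeline to give IC50 (nM), maximal % inhibition and the drug sensitivity score (DSS). Suffixes _1/_2/_3 on drug names are replicates.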

[6] = tested on: UT-SCC-106A; experiment: drug sensitivity score (DSS); higher = more sensitive; extreme values may be limits of the assay
Outline: as §1

[7] = tested on: UT-SCC-14; experiment: as above
Outline: as §1

[8] = tested on: UT-SCC-24B; experiment: as above
Outline: as §1

[9] = culture condition: embedded in Matrigel
[10] = culture condition: embedded in Myogel + collagen I
[11] = culture condition: on top of Matrigel
[12] = culture condition: on top of Myogel
[13] = culture condition: plastic 2D (no matrix)

SMILES: O=C(NC[C@H](O)CO)c1ccncc1Nc1ccc(I)cc1F [Pimasertib]
- drug sensitivity score [1, 9]: 34.8 ± 1.2 DSS
- drug sensitivity score [1, 10]: 18.5 ± 1.2 DSS
- drug sensitivity score [1, 11]: 31.6 ± 0.84 DSS
- drug sensitivity score [1, 12]: 15 ± 1.6 DSS
- drug sensitivity score [1, 13]: 28.3 ± 1.6 DSS
- maximal % inhibition of viability [2, 9]: 53.5 ± 4.2%
- maximal % inhibition of viability [2, 10]: 43.4 ± 1.8%
- maximal % inhibition of viability [2, 11]: 63.2 ± 0.68%
- maximal % inhibition of viability [2, 12]: 54.1 ± 3.3%
- maximal % inhibition of viability [2, 13]: 70 ± 1.2%
- maximal % inhibition of viability [3, 9]: 64.8 ± 6.5%
- maximal % inhibition of viability [3, 10]: 59.6 ± 4.5%
- maximal % inhibition of viability [3, 11]: 59.6 ± 6.8%
- maximal % inhibition of viability [3, 12]: 54.7 ± 9.3%
- maximal % inhibition of viability [3, 13]: 57.1 ± 10%
- maximal % inhibition of viability [4, 9]: 54.1 ± 6.8%
- maximal % inhibition of viability [4, 10]: 51 ± 6.3%
- maximal % inhibition of viability [4, 11]: 54.8 ± 1.5%
- maximal % inhibition of viability [4, 13]: 32.7 ± 3.9%
- maximal % inhibition of viability [5, 9]: 85 ± 0.94%
- maximal % inhibition of viability [5, 10]: 77.9 ± 2.9%
- maximal % inhibition of viability [5, 11]: 81.4 ± 1.8%
- maximal % inhibition of viability [5, 12]: 68 ± 3.4%
- maximal % inhibition of viability [5, 13]: 79.3 ± 2.7%
- drug sensitivity score [6, 9]: 19.4 ± 0.44 DSS
- drug sensitivity score [6, 10]: 5.6 ± 0.27 DSS
- drug sensitivity score [6, 11]: 22.2 ± 0.52 DSS
- drug sensitivity score [6, 12]: 6.27 ± 0.74 DSS
- drug sensitivity score [6, 13]: 22.2 ± 0.74 DSS
- drug sensitivity score [7, 9]: 13.9 ± 3.4 DSS
- drug sensitivity score [7, 10]: 12.2 ± 5.1 DSS
- drug sensitivity score [7, 11]: 10.6 ± 2.3 DSS
- drug sensitivity score [7, 12]: 8.27 ± 2.3 DSS
- drug sensitivity score [7, 13]: 8.03 ± 3.4 DSS
- drug sensitivity score [8, 9]: 15.6 ± 1.2 DSS
- drug sensitivity score [8, 10]: 14.4 ± 2 DSS
- drug sensitivity score [8, 11]: 15 ± 0.9 DSS
- drug sensitivity score [8, 12]: 9.1 ± 0.61 DSS
